From ChEMBL document CHEMBL5291721, “A preclinical secondary pharmacology resource illuminates target-adverse drug reaction associations of marketed drugs” (Nat Commun, 2023)

Assays:
[1] = target: T1, Alpha-1A adrenergic receptor (Homo sapiens, UniProt P35348); format: functional, cell-based
T1 sequence (P35348 whole entry): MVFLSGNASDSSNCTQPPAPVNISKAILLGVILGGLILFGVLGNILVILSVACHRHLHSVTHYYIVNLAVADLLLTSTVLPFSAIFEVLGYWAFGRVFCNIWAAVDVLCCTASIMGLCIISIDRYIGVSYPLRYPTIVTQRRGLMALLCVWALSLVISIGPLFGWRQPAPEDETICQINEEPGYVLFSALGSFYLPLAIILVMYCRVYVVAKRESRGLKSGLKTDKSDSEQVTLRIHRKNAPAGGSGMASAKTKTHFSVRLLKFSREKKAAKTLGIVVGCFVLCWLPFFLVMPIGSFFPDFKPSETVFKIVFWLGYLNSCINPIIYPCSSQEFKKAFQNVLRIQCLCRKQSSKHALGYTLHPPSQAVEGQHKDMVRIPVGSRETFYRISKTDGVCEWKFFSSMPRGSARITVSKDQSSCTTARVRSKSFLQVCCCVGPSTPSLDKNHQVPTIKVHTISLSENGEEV

[2] = target: T2, Alpha-2A adrenergic receptor (Homo sapiens, UniProt P08913)
T2 sequence (P08913 whole entry): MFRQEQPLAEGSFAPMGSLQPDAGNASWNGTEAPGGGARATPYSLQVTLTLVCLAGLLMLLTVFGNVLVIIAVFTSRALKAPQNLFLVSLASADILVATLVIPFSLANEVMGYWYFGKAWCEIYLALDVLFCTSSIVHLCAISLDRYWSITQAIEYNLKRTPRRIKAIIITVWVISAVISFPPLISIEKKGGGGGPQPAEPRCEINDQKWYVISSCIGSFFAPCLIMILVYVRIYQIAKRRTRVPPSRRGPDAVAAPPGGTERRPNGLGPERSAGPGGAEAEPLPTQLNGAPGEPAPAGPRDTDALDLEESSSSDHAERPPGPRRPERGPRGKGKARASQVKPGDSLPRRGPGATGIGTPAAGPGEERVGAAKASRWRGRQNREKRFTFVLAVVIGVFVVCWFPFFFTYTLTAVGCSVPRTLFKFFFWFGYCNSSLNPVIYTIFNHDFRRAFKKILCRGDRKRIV

[3] = target: D(1A) dopamine receptor (Homo sapiens, UniProt P21728)
Sequence of D(1A) dopamine receptor (P21728 whole entry): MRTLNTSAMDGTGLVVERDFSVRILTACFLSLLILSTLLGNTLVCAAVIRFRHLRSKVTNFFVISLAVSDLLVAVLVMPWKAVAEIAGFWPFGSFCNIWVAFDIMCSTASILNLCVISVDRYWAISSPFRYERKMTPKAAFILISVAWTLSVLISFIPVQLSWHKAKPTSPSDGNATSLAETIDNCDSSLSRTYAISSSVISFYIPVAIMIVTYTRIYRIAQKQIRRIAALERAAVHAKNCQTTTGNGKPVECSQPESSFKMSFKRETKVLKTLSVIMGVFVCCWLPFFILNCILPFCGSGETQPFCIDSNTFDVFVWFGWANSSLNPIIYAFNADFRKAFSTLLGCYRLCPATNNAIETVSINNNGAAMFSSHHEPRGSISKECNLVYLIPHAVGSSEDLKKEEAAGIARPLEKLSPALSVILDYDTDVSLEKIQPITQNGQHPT

[4] = target: D(3) dopamine receptor (Homo sapiens, UniProt P35462)
Sequence of D(3) dopamine receptor (P35462 whole entry): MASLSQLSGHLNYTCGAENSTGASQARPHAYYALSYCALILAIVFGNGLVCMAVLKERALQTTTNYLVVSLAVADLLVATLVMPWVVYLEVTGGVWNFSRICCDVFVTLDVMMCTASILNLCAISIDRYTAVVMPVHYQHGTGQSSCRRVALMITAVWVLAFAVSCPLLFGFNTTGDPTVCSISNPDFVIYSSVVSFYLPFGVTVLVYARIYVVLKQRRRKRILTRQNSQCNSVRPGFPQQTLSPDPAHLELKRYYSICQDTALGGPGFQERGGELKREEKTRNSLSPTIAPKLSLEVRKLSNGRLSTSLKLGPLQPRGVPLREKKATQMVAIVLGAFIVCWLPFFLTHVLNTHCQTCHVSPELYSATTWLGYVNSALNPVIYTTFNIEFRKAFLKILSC

[5] = target: Prothrombin (Homo sapiens, UniProt P00734); format: functional
[6] = target: Histamine H3 receptor (Homo sapiens, UniProt Q9Y5N1)
Sequence of Histamine H3 receptor (Q9Y5N1 whole entry): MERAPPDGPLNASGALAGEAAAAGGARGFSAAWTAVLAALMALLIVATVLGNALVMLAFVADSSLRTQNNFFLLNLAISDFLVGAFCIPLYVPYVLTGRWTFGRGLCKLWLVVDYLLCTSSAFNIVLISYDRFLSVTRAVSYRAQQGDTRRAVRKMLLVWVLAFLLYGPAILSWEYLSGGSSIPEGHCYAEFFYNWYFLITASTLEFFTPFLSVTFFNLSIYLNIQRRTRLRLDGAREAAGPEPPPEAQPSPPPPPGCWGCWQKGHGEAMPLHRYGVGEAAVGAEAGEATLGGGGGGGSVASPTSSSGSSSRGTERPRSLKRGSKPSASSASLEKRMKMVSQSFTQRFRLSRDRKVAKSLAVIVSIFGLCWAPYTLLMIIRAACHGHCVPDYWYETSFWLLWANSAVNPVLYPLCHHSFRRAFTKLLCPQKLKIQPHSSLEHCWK

[7] = target: 5-hydroxytryptamine receptor 2B (Homo sapiens, UniProt P41595); format: functional, cell-based
[8] = target: Voltage-gated inwardly rectifying potassium channel KCNH2 (Homo sapiens, UniProt Q12809); format: functional
Sequence of Voltage-gated inwardly rectifying potassium channel KCNH2 (Q12809 whole entry): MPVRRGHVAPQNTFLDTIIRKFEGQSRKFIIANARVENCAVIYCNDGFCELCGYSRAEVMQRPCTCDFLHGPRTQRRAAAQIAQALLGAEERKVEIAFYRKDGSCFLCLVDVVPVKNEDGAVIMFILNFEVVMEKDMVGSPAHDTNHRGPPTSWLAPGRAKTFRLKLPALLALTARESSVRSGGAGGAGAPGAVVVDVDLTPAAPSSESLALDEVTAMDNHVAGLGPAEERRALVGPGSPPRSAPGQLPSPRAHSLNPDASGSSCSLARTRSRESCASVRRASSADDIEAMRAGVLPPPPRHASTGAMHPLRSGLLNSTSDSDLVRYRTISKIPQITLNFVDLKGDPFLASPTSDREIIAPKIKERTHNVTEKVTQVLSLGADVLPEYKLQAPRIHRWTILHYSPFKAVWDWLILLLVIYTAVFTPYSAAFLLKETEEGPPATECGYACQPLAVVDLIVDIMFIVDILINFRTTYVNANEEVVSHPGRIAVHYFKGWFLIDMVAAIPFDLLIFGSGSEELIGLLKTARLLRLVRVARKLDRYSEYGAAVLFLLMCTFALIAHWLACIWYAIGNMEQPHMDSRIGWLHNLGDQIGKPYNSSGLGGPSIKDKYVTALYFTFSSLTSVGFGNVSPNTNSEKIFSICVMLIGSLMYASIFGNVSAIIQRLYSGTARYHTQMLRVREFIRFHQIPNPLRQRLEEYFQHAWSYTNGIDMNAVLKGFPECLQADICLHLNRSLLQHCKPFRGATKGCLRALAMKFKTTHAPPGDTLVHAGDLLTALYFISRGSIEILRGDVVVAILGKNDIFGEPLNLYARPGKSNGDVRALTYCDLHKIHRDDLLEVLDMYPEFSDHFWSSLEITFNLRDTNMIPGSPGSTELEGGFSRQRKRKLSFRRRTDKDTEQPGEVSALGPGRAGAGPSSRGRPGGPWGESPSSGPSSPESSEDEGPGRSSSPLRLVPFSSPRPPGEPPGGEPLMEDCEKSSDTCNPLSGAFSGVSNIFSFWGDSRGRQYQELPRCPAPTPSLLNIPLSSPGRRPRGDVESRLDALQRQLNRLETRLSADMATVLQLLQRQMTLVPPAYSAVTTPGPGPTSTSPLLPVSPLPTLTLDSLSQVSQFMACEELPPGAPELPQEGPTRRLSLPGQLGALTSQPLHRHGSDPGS

[9] = target: Mu-type opioid receptor (Homo sapiens, UniProt P35372)
Sequence of Mu-type opioid receptor (P35372 whole entry): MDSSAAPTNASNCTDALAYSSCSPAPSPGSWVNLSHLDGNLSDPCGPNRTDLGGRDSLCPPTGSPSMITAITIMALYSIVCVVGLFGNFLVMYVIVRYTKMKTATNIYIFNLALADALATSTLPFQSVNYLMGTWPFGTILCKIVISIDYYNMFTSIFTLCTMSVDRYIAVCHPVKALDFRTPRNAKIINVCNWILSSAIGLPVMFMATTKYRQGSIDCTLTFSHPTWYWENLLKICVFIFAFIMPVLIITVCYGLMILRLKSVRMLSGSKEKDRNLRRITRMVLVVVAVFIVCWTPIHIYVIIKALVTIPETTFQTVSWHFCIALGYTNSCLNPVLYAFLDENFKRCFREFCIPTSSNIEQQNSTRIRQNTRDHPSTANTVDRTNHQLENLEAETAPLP

[10] = target: cGMP-inhibited 3',5'-cyclic phosphodiesterase 3A (Homo sapiens, UniProt Q14432); format: functional
[11] = target: T3, Progesterone receptor (Homo sapiens, UniProt P06401)
T3 sequence (P06401 whole entry): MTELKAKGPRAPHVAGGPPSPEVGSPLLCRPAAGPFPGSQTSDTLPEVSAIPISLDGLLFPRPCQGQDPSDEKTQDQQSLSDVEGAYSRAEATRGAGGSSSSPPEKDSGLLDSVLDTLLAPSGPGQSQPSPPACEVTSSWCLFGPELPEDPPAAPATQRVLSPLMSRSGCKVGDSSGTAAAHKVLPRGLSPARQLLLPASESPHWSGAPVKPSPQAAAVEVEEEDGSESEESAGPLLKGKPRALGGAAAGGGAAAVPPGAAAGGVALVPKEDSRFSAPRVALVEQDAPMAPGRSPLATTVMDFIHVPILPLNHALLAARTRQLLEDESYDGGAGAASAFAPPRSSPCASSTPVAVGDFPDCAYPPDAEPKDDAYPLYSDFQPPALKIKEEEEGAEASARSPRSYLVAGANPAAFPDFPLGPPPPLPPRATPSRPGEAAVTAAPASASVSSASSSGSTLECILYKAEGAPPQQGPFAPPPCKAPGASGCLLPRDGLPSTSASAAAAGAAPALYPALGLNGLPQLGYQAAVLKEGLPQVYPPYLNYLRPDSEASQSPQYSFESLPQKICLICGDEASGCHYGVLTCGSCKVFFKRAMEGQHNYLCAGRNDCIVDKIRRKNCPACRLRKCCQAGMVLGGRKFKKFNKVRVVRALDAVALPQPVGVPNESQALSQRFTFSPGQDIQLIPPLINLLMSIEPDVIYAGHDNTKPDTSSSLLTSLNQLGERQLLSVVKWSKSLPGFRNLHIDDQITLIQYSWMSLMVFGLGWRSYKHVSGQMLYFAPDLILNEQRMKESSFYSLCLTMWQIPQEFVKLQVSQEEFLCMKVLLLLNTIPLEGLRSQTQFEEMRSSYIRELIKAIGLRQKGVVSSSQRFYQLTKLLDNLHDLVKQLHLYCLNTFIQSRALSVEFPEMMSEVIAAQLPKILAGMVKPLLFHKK

[12] = target: Prostaglandin G/H synthase 1 (Homo sapiens, UniProt P23219); format: functional
Sequence of Prostaglandin G/H synthase 1 (P23219 whole entry): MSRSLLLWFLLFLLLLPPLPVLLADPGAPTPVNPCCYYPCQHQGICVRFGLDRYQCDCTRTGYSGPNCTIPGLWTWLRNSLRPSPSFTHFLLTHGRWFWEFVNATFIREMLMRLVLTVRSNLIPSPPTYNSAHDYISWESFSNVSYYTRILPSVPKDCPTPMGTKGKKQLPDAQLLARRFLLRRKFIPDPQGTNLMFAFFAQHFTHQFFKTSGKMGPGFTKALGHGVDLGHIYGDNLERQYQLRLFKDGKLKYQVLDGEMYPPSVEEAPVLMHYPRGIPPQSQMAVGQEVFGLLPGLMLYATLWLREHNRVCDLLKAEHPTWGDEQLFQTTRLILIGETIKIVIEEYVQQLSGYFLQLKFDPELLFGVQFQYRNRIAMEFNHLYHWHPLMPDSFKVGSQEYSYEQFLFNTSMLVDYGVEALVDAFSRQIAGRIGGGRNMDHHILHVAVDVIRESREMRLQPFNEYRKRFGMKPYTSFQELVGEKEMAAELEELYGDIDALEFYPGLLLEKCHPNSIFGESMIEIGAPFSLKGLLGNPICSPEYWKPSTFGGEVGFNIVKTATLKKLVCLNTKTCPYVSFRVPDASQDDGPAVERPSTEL

[13] = target: Sodium-dependent noradrenaline transporter (Homo sapiens, UniProt P23975)
Sequence of Sodium-dependent noradrenaline transporter (P23975 whole entry): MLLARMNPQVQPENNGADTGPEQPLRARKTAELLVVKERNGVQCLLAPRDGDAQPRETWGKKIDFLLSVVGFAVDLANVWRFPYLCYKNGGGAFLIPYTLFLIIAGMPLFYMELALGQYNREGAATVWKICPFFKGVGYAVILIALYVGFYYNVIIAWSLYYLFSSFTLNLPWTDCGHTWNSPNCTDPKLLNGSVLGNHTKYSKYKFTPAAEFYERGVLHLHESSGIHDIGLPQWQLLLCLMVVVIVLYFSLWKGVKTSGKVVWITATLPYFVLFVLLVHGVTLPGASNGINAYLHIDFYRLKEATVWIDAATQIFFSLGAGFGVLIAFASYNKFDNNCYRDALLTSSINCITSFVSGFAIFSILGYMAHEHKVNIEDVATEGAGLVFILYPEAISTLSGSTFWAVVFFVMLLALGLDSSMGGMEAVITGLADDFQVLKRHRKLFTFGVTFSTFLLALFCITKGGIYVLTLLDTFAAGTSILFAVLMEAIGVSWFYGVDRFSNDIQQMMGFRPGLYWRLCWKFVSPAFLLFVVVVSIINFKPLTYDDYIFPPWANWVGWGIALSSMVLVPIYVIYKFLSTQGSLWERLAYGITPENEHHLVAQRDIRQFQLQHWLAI

[14] = target: Sodium-dependent dopamine transporter (Homo sapiens, UniProt Q01959)
Sequence of Sodium-dependent dopamine transporter (Q01959 whole entry): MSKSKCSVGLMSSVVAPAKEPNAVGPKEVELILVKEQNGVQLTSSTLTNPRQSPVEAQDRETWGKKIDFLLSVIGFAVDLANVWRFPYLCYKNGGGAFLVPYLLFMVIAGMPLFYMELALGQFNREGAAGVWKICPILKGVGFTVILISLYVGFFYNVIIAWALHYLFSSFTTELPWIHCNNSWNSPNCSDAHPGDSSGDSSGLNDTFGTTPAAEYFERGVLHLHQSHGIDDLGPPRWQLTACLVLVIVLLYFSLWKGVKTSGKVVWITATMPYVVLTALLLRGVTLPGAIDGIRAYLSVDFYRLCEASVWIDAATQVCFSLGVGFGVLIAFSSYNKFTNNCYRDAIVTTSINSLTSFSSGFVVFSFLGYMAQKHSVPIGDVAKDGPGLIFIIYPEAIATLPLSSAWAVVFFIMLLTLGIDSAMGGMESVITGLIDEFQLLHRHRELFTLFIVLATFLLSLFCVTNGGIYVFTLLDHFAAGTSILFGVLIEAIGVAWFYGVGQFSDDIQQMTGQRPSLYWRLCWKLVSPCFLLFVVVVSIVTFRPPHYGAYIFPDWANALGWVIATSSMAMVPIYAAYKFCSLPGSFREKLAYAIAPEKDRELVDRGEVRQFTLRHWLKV

[15] = target: T4, Thromboxane A2 receptor (Homo sapiens, UniProt P21731); format: functional, cell-based
T4 sequence (P21731 whole entry): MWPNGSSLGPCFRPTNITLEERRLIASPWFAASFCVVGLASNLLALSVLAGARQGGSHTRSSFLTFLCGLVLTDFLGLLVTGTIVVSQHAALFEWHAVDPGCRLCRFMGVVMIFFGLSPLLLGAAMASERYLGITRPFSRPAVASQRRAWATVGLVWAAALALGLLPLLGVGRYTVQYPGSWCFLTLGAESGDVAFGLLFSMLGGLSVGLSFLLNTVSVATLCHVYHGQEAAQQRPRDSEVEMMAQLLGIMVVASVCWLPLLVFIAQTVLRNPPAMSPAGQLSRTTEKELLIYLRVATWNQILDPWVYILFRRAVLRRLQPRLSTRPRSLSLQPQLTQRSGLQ
Also: assay procedure not described here.

## C[C@]12C=CC(=O)C=C1CC[C@H]1[C@@H]3C[C@@H](O)[C@](O)(C(=O)CO)[C@@]3(C)C[C@H](O)[C@@]12F [TRIAMCINOLONE]
[1]
  AC50: > 30 µM
[2]
  AC50: > 30 µM
[3]
  AC50: > 30 µM
[4]
  AC50: > 30 µM
[5]
  AC50: > 30 µM
[6]
  AC50: > 30 µM
[7]
  AC50: > 30 µM
[8]
  AC50: > 30 µM
[9]
  AC50: > 30 µM
[10]
  AC50: > 30 µM
[11]
  AC50: 19.7 µM
[12]
  AC50: > 30 µM
[13]
  AC50: > 30 µM
[14]
  AC50: > 30 µM
[15]
  AC50: > 30 µM

## CC[C@]12CCCN3CCc4c(n(c5ccccc45)[C@@](O)(C(=O)OC)C1)[C@@H]32 [VINCAMINE]
[1]
  AC50: > 30 µM
[2]
  AC50: > 30 µM
[3]
  AC50: > 30 µM
[4]
  AC50: > 30 µM
[5]
  AC50: > 30 µM
[6]
  AC50: > 30 µM
[7]
  AC50: > 30 µM
[8]
  AC50: 0.46 µM
[9]
  AC50: > 30 µM
[10]
  AC50: > 30 µM
[11]
  AC50: > 30 µM
[12]
  AC50: > 30 µM
[13]
  AC50: > 30 µM
[14]
  AC50: > 30 µM
[15]
  AC50: > 30 µM
